Source: patent US12435090B2, “Compounds, pharmaceutical compositions, and methods of preparing compounds and of their use” (Repare Therapeutics Inc., priority 2021, dated 2025)

Target: recombinant human Myt1 (Homo sapiens (Human), UniProt Q99640)
Test: Myt1 enzymatic assay (ADP-Glo kinase assay)
Type: biochemical
Conditions: 18 nM enzyme, 10 uM ATP
Protocol: Detection of Myt1 kinase activity utilized a recombinant human Myt1 kinase assay measuring the hydrolysis of ATP using a commercially available ADP-Glo Assay (ADP-Glo™ Kinase Assay from Promega, 10 000 assays, #V9102). […] After this, 5 μL of compounds (diluted in reaction buffer to 0.5% DMSO) was added to the microplate and the plate was spun briefly and incubated at 22° C. for 15 minutes. Ultra-Pure Adenosine Triphosphate (ATP) solution (ADP-Glo kit from Promega) was diluted in reaction buffer and 5 μL was added to the microplate, spun down briefly and incubated for 60 minutes at 30° C. […] After the 60-minute incubation, 15 µL of ADP-Glo reagent was added and the plate was spun briefly and sealed and incubated in the dark for 40 minutes at 22° C. […] Luminescence was read using the Envision (250 ms integration). The IC50 and the % max inhibition were calculated for each inhibitor compound tested.

Sequence of recombinant human Myt1 (Q99640 whole entry): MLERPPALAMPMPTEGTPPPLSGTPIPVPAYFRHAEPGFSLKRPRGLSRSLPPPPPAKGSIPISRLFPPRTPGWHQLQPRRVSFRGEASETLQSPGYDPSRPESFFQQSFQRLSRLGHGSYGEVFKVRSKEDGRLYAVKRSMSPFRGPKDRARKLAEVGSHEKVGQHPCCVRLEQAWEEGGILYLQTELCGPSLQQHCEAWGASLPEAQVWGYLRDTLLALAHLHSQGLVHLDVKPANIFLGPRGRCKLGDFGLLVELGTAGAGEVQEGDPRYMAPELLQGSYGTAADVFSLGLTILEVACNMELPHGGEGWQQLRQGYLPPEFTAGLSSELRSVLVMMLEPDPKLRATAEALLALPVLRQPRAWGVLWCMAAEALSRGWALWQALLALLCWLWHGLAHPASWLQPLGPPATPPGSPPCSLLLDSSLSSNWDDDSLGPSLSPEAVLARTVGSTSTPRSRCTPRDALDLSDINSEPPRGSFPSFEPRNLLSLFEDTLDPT

| SMILES | IC50 [nM] |
| --- | --- |
| Cc1ccc(O)c(C)c1-n1c(N)c(C(N)=O)c2nc(-c3nccs3)c(C)nc21 [Compound 31, 6-amino-5-(3-hydroxy-2,6-dimethyl-phenyl)-3-methyl-2-thiazol-2-yl-pyrrolo[2,3-b]pyrazine-7-carboxamide] | < 10 |
| Cc1ccc(O)c(C)c1-n1c(N)c(C(N)=O)c2nc(-c3nc(C)c(C)s3)cnc21 [Compound 32] | < 10 |
| Cc1ccc(O)c(C)c1-n1c(N)c(C(N)=O)c2nc(-c3ccnc(C(F)(F)F)c3)cnc21 [Compound 35, 6-amino-5-(3-hydroxy-2,6-dimethyl-phenyl)-2-[2-(trifluoromethyl)-4-pyridyl]pyrrolo[2,3-b]pyrazine-7-carboxamide] | < 10 |
| CNC(=O)C1CCN(c2cnc3c(n2)c(C(N)=O)c(N)n3-c2c(C)ccc(O)c2C)CC1 [Compound 46, 6-amino-5-(3-hydroxy-2,6-dimethyl-phenyl)-2-[4-(methylcarbamoyl)-1-piperidyl]pyrrolo[2,3-b]pyrazine-7-carboxamide] | < 10 |
| Cc1ccc(O)c(C)c1-n1c(N)c(C(N)=O)c2nc(C3=CCC(C(=O)N(C)C)CC3)cnc21 (stereo not shown) [Compound 58] | < 10 |
| Cc1ccc(-c2cnc3c(n2)c(C(N)=O)c(N)n3-c2c(C)ccc(O)c2C)nc1 [Compound 61] | < 10 |
| Cc1ccc(O)c(C)c1-n1c(N)c(C(N)=O)c2nc(-c3ccc(F)cn3)cnc21 [Compound 64] | < 10 |
| Cc1ccc(O)c(C)c1-n1c(N)c(C(N)=O)c2nc(N3CCC(C(=O)N(C)C)CC3)cnc21 [Compound 80] | < 10 |
| Cc1ccc(O)c(C)c1-n1c(N)c(C(N)=O)c2nc(N3CCCCC3)cnc21 [Compound 81] | < 10 |
| Cc1ccc(O)c(C)c1-n1c(N)c(C(N)=O)c2nc(C3CCCCC3)cnc21 [Compound 83] | < 10 |
| CC(=O)N1CCN(c2cnc3c(n2)c(C(N)=O)c(N)n3-c2c(C)ccc(O)c2C)CC1 [Compound 87] | < 10 |
| CCN(CC)c1cnc2c(n1)c(C(N)=O)c(N)n2-c1c(C)ccc(O)c1C [Compound 88] | < 10 |
| Cc1ccc(O)c(C)c1-n1c(N)c(C(N)=O)c2nc(N3CC4CCC(C3)O4)cnc21 [Compound 92] | < 10 |
| Cc1ccc(O)c(C)c1-n1c(N)c(C(N)=O)c2nc(C3CC3)c(C)nc21 [Compound 100] | < 10 |
| Cc1ccc(O)c(Cl)c1-n1c(N)c(C(N)=O)c2nc(C3CC3)cnc21 [Compound 104] | < 10 |
| Cc1ccc(O)c(C)c1-n1c(N)c(C(N)=O)c2cc(C(C)C)cnc21 [Compound 138] | < 10 |
| Cc1ccc(O)c(C)c1-n1c(N)c(C(N)=O)c2cc(Br)cnc21 [Compound 141] | < 10 |
| Cc1ccc(O)c(C)c1-n1cc(C(N)=O)c2cc(C3CC3)cnc21 [Compound 143] | < 10 |
| Cc1nc2c(C(N)=O)c(N)n(-c3c(Cl)ccc(O)c3C)c2nc1C [Compound 168] | < 10 |
| Cc1cnc(O)cc1-n1c(N)c(C(N)=O)c2nc(C)c(C)nc21 [Compound 169, 6-amino-5-(2-hydroxy-5-methyl-4-pyridyl)-2,3-dimethyl-pyrrolo[2,3-b]pyrazine-7-carboxamide] | 1730 |

| SMILES | IC50 [nM] |
| --- | --- |
| Cc1ccc(O)c(C)c1-n1c(N)c(C(N)=O)c2nc(C3CCC3)cnc21 [Compound 173, 6-amino-2-cyclobutyl-5-(3-hydroxy-2,6-dimethyl-phenyl) pyrrolo[2,3-b]pyrazine-7-carboxamide] | < 10 |
| Cc1ccc(O)c(C)c1-n1c(N)c(C(N)=O)c2nc(C(C)(C)F)cnc21 [Compound 178, 6-amino-2-(1-fluoro-1-methyl-ethyl)-5-(3-hydroxy-2,6-dimethyl-phenyl) pyrrolo[2,3-b]pyrazine-7-carboxamide] | < 10 |
| Cc1ccc(O)c(C)c1-n1c(N)c(C(N)=O)c2cc(Br)c(C)nc21 [Compound 187] | < 10 |
| Cc1ccc2c(C(N)=O)c(N)n(-c3c(C)ccc(O)c3C)c2n1 [Compound 193] | < 10 |
| Cc1ccc(O)c(C)c1-n1c(N)c(C(N)=O)c2nc(C3(C(F)(F)F)CC3)cnc21 [Compound 198, 6-amino-5-(3-hydroxy-2,6-dimethyl-phenyl)-2-[1-(trifluoromethyl)cyclopropyl]pyrrolo[2,3-b]pyrazine-7-carboxamide] | < 10 |
| Cc1ccc(O)c(C)c1-n1c(N)c(C(N)=O)c2ncc(C#CCC3CCOCC3)nc21 [Compound 222] | < 10 |
| Cc1ccc(O)c(C)c1-n1c(N)c(C(N)=O)c2ncc(C#CC3(O)CCOCC3)nc21 [Compound 231] | < 10 |
| Cc1ccc(O)c(C)c1-n1c(N)c(C(N)=O)c2ncc(C#CC3(O)CCC(F)(F)CC3)nc21 [Compound 242, 6-amino-3-[2-(4,4-difluoro-1-hydroxy-cyclohexyl)ethynyl]-5-(3-hydroxy-2,6-dimethyl-phenyl) pyrrolo[2,3-b]pyrazine-7-carboxamide] | < 10 |
| Cc1ccc(O)c(C)c1-n1c(N)c(C(N)=O)c2nc(-c3nc4ccccc4s3)cnc21 [Compound 248] | < 10 |
| Cc1ncc(O)cc1-n1c(N)c(C(N)=O)c2nc(C)c(C)nc21 [Compound 262] | 3230 |
| NC(=O)c1c(N)n(-c2cccc3[nH]ncc23)c2nccnc12 [Compound 277, 6-amino-5-(1H-indazol-4-yl)pyrrolo[2,3-b]pyrazine-7-carboxamide] | 1380 |
| Cc1ccc(O)c(C)c1-n1c(N)c(S(C)(=O)=O)c2nc(-c3cnccn3)cnc21 [Compound 278] | > 5000 |
| Cc1ccc(O)c(Br)c1-n1c(N)c(C(N)=O)c2cc(Cl)cnc21 [Compound 289] | < 10 |
| Cc1ccc(O)c(C)c1-n1c(N)c(C(N)=O)c2c(C)c(Cl)cnc21 [Compound 313] | < 10 |
| Cc1ccc(O)c(C)c1-n1c(N)c(C(N)=O)c2c(Cl)c(Cl)cnc21 [Compound 316] | < 10 |
| Cc1ccc(O)c(C)c1-n1c(N)c(C(N)=O)c2cc(I)cnc21 [Compound 319] | < 10 |
| NC(=O)c1c(N)n(-c2cccc3[nH]ncc23)c2ncc(C3CC3)nc12 [Compound 330, 6-amino-2-cyclopropyl-5-(1H-indazol-4-yl)pyrrolo[2,3-b]pyrazine-7-carboxamide] | 106 |
| CCCCc1cnc2c(n1)c(C(N)=O)c(N)n2-c1cccc2[nH]ncc12 [Compound 331] | 1320 |
| NC(=O)c1c(N)n(-c2cccc3[nH]ncc23)c2ncc(-c3nccs3)nc12 [Compound 332] | 142 |
| NC(=O)c1c(N)n(-c2cccc3[nH]ncc23)c2ncc(-c3ncc(F)cc3F)nc12 [Compound 333, 6-amino-2-(3,5-difluoro-2-pyridyl)-5-(1H-indazol-4-yl)pyrrolo[2,3-b]pyrazine-7-carboxamide] | 52 |

Continued, values first:

| IC50 [nM] | SMILES |
| --- | --- |
| < 10 | Cc1ccc(O)c(C)c1-n1c(N)c(C(N)=O)c2nc(-c3ccccn3)cnc21 [Compound 34] |
| < 10 | Cc1ccc(O)c(C)c1-n1c(N)c(C(N)=O)c2nc(-c3cncs3)cnc21 [Compound 37] |
| < 10 | Cc1ccc(O)c(C)c1-n1c(N)c(C(N)=O)c2nc(-c3cnccn3)cnc21 [Compound 38] |
| < 10 | Cc1ccc(O)c(C)c1-n1c(N)c(C(N)=O)c2nc(-c3ccns3)cnc21 [Compound 41] |
| < 10 | Cc1c(O)ccc(Cl)c1-n1c(N)c(C(N)=O)c2nc(-c3nccs3)cnc21 [Compound 42] |
| < 10 | Cc1ccc(O)c(C)c1-n1c(N)c(C(N)=O)c2nc(-c3ccncn3)cnc21 [Compound 57] |
| < 10 | Cc1ccc(O)c(C)c1-n1c(N)c(C(N)=O)c2nc(-c3c[nH]cn3)cnc21 [Compound 65] |
| < 10 | Cc1ccc(O)c(C)c1-n1c(N)c(C(N)=O)c2nc(-c3cn(C)cn3)cnc21 [Compound 76] |
| < 10 | Cc1ccc(O)c(C)c1-n1c(N)c(C(N)=O)c2nc(N3CCCC3)cnc21 [Compound 85] |
| < 10 | Cc1ccc(O)c(C)c1-n1c(N)c(C(N)=O)c2nc(C3=CCCCC3)cnc21 [Compound 86] |
| < 10 | Cc1ccc(O)c(C)c1-n1c(N)c(C(N)=O)c2cc(C(C)(C)O)cnc21 [Compound 131] |
| < 10 | C=C(C)c1cnc2c(n1)c(C(N)=O)c(N)n2-c1c(C)ccc(O)c1C [Compound 202] |
| < 10 | Cc1ccc(O)c(C)c1-n1c(N)c(C(N)=O)c2nc(C(N)=O)cnc21 [Compound 220, 6-amino-5-(3-hydroxy-2,6-dimethyl-phenyl) pyrrolo[2,3-b]pyrazine-2,7-dicarboxamide] |
| < 10 | Cc1ccc(O)c(C)c1-n1c(N)c(C(N)=O)c2nc(-c3ccnnc3)cnc21 [Compound 250] |
| < 10 | C=Cc1cnc2c(n1)c(C(N)=O)c(N)n2-c1c(C)ccc(O)c1C [Compound 259] |
| < 10 | Cc1ccc(O)c(C)c1-n1c(N)c(C(N)=O)c2cc(-c3ccccn3)cnc21 [Compound 295] |
| < 10 | Cc1ccc(O)c(C)c1-n1c(N)c(C(N)=O)c2cc(N3CCCC3=O)cnc21 [Compound 298] |
| < 10 | Cc1ccc(O)c(C)c1-n1c(N)c(C(N)=O)c2cc(C3=CCOCC3)cnc21 [Compound 304] |
| < 10 | Cc1ccc(O)c(C)c1-n1c(N)c(C(N)=O)c2cc(-c3nccs3)cnc21 [Compound 308] |
| < 10 | Cc1ccc(O)c(C)c1-n1c(N)c(C(N)=O)c2cc(S(=O)(=O)C3CC3)cnc21 [Compound 311] |
| < 10 | Cc1ccc(O)c(C)c1-n1c(N)c(C(N)=O)c2cc(C#N)cnc21 [Compound 312] |
| < 10 | Cc1ccc(O)c(Cl)c1-n1c(N)c(C(N)=O)c2cc(Cl)cnc21 [Compound 327] |
| < 10 | Cc1ccc(O)c(C)c1-n1c(N)c(C(N)=O)c2cccnc21 [Compound 328] |
| 1320 | Cc1ccc2[nH]ncc2c1-n1c(N)c(C(N)=O)c2nccnc21 [Compound 329] |
